Values after ≈ are worked out from the molar mass of the structure shown. Active and inactive are the calls of the source. The rule behind the calls is not given here.
How the values were obtained:
Staphylococcus aureus [1] = assay: Antibacterial activity against methicillin-resistant Staphylococcus aureus ATCC 33591 infected in full-thickness wound BALB/c mouse model assessed as reduction in inflammatory infiltration at 1 mg/kg, ip administered for 1 to 48 hrs and measured after 3 days; type: functional, organism-based; conditions: time 1-120 hrs
Salmonella typhimurium = assay: Antimicrobial activity against Salmonella typhimurium ATCC 14028 assessed as inhibition of visible bacterial growth incubated for 18 hrs by broth-dilution method; type: functional, Salmonella enterica subsp. enterica serovar Typhimurium
Pseudomonas aeruginosa [2] = assay: Antimicrobial activity against Pseudomonas aeruginosa ATCC 27853 assessed as inhibition of visible bacterial growth incubated for 18 hrs by broth-dilution method; type: functional
Bacillus subtilis = assay: Antimicrobial activity against Bacillus subtilis ATCC 23857 assessed as inhibition of visible bacterial growth incubated for 18 hrs by broth-dilution method; type: functional
Escherichia coli = assay: Antimicrobial activity against Escherichia coli ATCC 25922 assessed as inhibition of visible bacterial growth incubated for 18 hrs by broth-dilution method; type: functional
Acinetobacter baumannii = assay: Antimicrobial activity against Acinetobacter baumannii ATCC 19606 assessed as inhibition of visible bacterial growth incubated for 18 hrs by broth-dilution method; type: functional
[3] = Toxicity in mouse assessed as sluggish behavior at 20 mg/kg, ip measured for 30 to 60 mins; type: organism-based; conditions: in vivo, time 30-60 min
Staphylococcus aureus [4] = assay: Antimicrobial activity against methicillin-resistant Staphylococcus aureus 7 assessed as inhibition of visible bacterial growth incubated for 18 hrs by broth-dilution method; type: functional
Staphylococcus aureus [5] = assay: Antimicrobial activity against methicillin-resistant Staphylococcus aureus 2 assessed as inhibition of visible bacterial growth incubated for 18 hrs by broth-dilution method; type: functional
Pseudomonas aeruginosa [6] = assay: Antimicrobial activity against multidrug-resistant Pseudomonas aeruginosa 073 assessed as inhibition of visible bacterial growth incubated for 18 hrs by broth-dilution method; type: functional
Staphylococcus aureus [7] = assay: Antimicrobial activity against methicillin-resistant Staphylococcus aureus 1 assessed as inhibition of visible bacterial growth incubated for 18 hrs by broth-dilution method; type: functional
Pseudomonas aeruginosa [8] = assay: Antimicrobial activity against multidrug-resistant Pseudomonas aeruginosa 156 assessed as inhibition of visible bacterial growth incubated for 18 hrs by broth-dilution method; type: functional
Pseudomonas aeruginosa [9] = assay: Antimicrobial activity against multidrug-resistant Pseudomonas aeruginosa 085 assessed as inhibition of visible bacterial growth incubated for 18 hrs by broth-dilution method; type: functional
[10] = system: Staphylococcus epidermidis; assay: Antimicrobial activity against Staphylococcus epidermidis ATCC 12228 assessed as inhibition of visible bacterial growth incubated for 18 hrs by broth-dilution method; type: functional
Staphylococcus aureus [11] = assay: Antimicrobial activity against methicillin-resistant Staphylococcus aureus 6 assessed as inhibition of visible bacterial growth incubated for 18 hrs by broth-dilution method; type: functional
Pseudomonas aeruginosa [12] = assay: Antimicrobial activity against multidrug-resistant Pseudomonas aeruginosa 050 assessed as inhibition of visible bacterial growth incubated for 18 hrs by broth-dilution method; type: functional
Staphylococcus aureus [13] = assay: Antimicrobial activity against methicillin-resistant Staphylococcus aureus 5 assessed as inhibition of visible bacterial growth incubated for 18 hrs by broth-dilution method; type: functional
Pseudomonas aeruginosa [14] = assay: Antimicrobial activity against multidrug-resistant Pseudomonas aeruginosa 157 assessed as inhibition of visible bacterial growth incubated for 18 hrs by broth-dilution method; type: functional
Staphylococcus aureus [15] = assay: Antimicrobial activity against methicillin-resistant Staphylococcus aureus 9 assessed as inhibition of visible bacterial growth incubated for 18 hrs by broth-dilution method; type: functional
Pseudomonas aeruginosa [16] = assay: Antimicrobial activity against multidrug-resistant Pseudomonas aeruginosa 124 assessed as inhibition of visible bacterial growth incubated for 18 hrs by broth-dilution method; type: functional
Staphylococcus aureus [17] = assay: Antimicrobial activity against methicillin-resistant Staphylococcus aureus ATCC 33591 assessed as inhibition of visible bacterial growth incubated for 18 hrs by broth-dilution method; type: functional
Cell membrane [18] = assay: Induction of cytoplasmic membrane depolarization in methicillin-resistant Staphylococcus aureus ATCC 33591 assessed as increase in fluorescence intensity at 4 times MIC by DiSC35 dye-based fluorescence assay
Pseudomonas aeruginosa [19] = assay: Antibacterial activity against Pseudomonas aeruginosa ATCC 27853 infected in C57BL/6 mouse pneumonia model assessed as […] at 5 mg/kg, ip administered for 1 to 48 hrs and measured after 3 days by H and E staining based analysis; type: functional, organism-based; conditions: time 1-120 hrs
Pseudomonas aeruginosa [20] = assay: Antimicrobial activity against multidrug-resistant Pseudomonas aeruginosa 125 assessed as inhibition of visible bacterial growth incubated for 18 hrs by broth-dilution method; type: functional
Staphylococcus aureus [21] = assay: Antimicrobial activity against methicillin-resistant Staphylococcus aureus 3 assessed as inhibition of visible bacterial growth incubated for 18 hrs by broth-dilution method; type: functional
Staphylococcus aureus [22] = assay: Drug resistance, ratio of MIC for methicillin-resistant Staphylococcus aureus ATCC 33591 after 20 days exposure to MIC for methicillin-resistant Staphylococcus aureus ATCC 33591 during first exposure; type: functional, organism-based; conditions: time 20.0 day
Staphylococcus aureus [23] = assay: Antimicrobial activity against methicillin-resistant Staphylococcus aureus 4 assessed as inhibition of visible bacterial growth incubated for 18 hrs by broth-dilution method; type: functional
Pseudomonas aeruginosa [24] = assay: Antimicrobial activity against multidrug-resistant Pseudomonas aeruginosa 119 assessed as inhibition of visible bacterial growth incubated for 18 hrs by broth-dilution method; type: functional
Staphylococcus aureus [25] = assay: Antimicrobial activity against Staphylococcus aureus ATCC 25923 assessed as inhibition of visible bacterial growth incubated for 18 hrs by broth-dilution method; type: functional
Pseudomonas aeruginosa [26] = assay: Antimicrobial activity against multidrug-resistant Pseudomonas aeruginosa 516 assessed as inhibition of visible bacterial growth incubated for 18 hrs by broth-dilution method; type: functional
Pseudomonas aeruginosa [27] = assay: Antibacterial activity against Pseudomonas aeruginosa ATCC 27853 infected in C57BL/6 mouse pneumonia model assessed as log reduction in bacterial load in lung at 5 mg/kg, ip administered for 1 to 48 hrs and measured after 3 days; type: functional; conditions: time 1-120 hrs
Pseudomonas aeruginosa [28] = assay: Bactericidal activity against Pseudomonas aeruginosa ATCC 27853 assessed as reduction in viable bacteria at 4 times MIC measured for 30 min by time-kill assay; type: functional, organism-based
Staphylococcus aureus [29] = assay: Antimicrobial activity against methicillin-resistant Staphylococcus aureus 10 assessed as inhibition of visible bacterial growth incubated for 18 hrs by broth-dilution method; type: functional
Staphylococcus aureus [30] = assay: Antimicrobial activity against methicillin-resistant Staphylococcus aureus 8 assessed as inhibition of visible bacterial growth incubated for 18 hrs by broth-dilution method; type: functional
Cell membrane [31] = assay: Induction of membrane depolarization in Pseudomonas aeruginosa ATCC 27853 assessed as increase in fluorescence intensity at 4 times MIC by DiSC35 dye-based fluorescence assay; type: cell membranes
Pseudomonas aeruginosa [32] = assay: Antimicrobial activity against multidrug-resistant Pseudomonas aeruginosa 061 assessed as inhibition of visible bacterial growth incubated for 18 hrs by broth-dilution method; type: functional

CN[C@H](CC(C)C)C(=O)N[C@H]1C(=O)N[C@@H](CC(N)=O)C(=O)N[C@H]2C(=O)N[C@H]3C(=O)N[C@H](C(=O)N[C@H](C(=O)O)c4cc(O)cc(O)c4-c4cc3ccc4O)[C@H](O)c3ccc(c(Cl)c3)Oc3cc2cc(c3O[C@@H]2O[C@H](CO)[C@@H](O)[C@H](O)[C@H]2O[C@H]2C[C@](C)(N)[C@H](O)[C@H](C)O2)Oc2ccc(cc2Cl)[C@H]1O [VANCOMYCIN]
Activity (Staphylococcus aureus [1]): Active | MIC (Salmonella typhimurium; Salmonella enterica): 128 µg/mL (≈ 88.3 µM) | MIC (Pseudomonas aeruginosa [2]): 256 µg/mL (≈ 177 µM) | MIC (Bacillus subtilis): 1 µg/mL (≈ 0.69 µM) | MIC (Escherichia coli): 256 µg/mL (≈ 177 µM) | MIC (Acinetobacter baumannii): 32 µg/mL (≈ 22.1 µM)

POLYMYXIN B [listing 1 of 2 here]
Activity [3]: Toxic

POLYMYXIN B [listing 2 of 2 here]
MIC (Staphylococcus aureus [4]): 16 µg/mL | MIC (Staphylococcus aureus [5]): 8 µg/mL | MIC (Pseudomonas aeruginosa [6]): 1 µg/mL | MIC (Staphylococcus aureus [7]): 8 µg/mL | MIC (Salmonella typhimurium; Salmonella enterica subsp. enterica serovar Typhimurium): 2 µg/mL | MIC (Pseudomonas aeruginosa [8]): 256 µg/mL | MIC (Pseudomonas aeruginosa [2]): 1 µg/mL | MIC (Bacillus subtilis): 8 µg/mL | MIC (Pseudomonas aeruginosa [9]): 1 µg/mL | MIC [10]: 8 µg/mL | MIC (Staphylococcus aureus [11]): 8 µg/mL | MIC (Pseudomonas aeruginosa [12]): 1 µg/mL | MIC (Staphylococcus aureus [13]): 16 µg/mL | MIC (Pseudomonas aeruginosa [14]): 1 µg/mL | MIC (Staphylococcus aureus [15]): 16 µg/mL | MIC (Pseudomonas aeruginosa [16]): 1 µg/mL | MIC (Staphylococcus aureus [17]): 16 µg/mL | Activity (Cell membrane [18]): inactive | Activity (Pseudomonas aeruginosa [19]): inactive | MIC (Pseudomonas aeruginosa [20]): 1 µg/mL | MIC (Staphylococcus aureus [21]): 8 µg/mL | Ratio (Staphylococcus aureus [22]): 8 | MIC (Staphylococcus aureus [23]): 16 µg/mL | MIC (Pseudomonas aeruginosa [24]): 1 µg/mL | MIC (Staphylococcus aureus [25]): 8 µg/mL | MIC (Pseudomonas aeruginosa [26]): 1 µg/mL | log(activity) (Pseudomonas aeruginosa [27]): 4.54 | Activity (Pseudomonas aeruginosa [28]): Active | MIC (Staphylococcus aureus [29]): 16 µg/mL | MIC (Escherichia coli): 1 µg/mL | MIC (Staphylococcus aureus [30]): 16 µg/mL | Activity (Cell membrane [31]): inactive | MIC (Pseudomonas aeruginosa [32]): 1 µg/mL | MIC (Acinetobacter baumannii): 4 µg/mL
